Measured values as given in PMC8467962, “Design and Synthesis of Water-Soluble and Potent MMP-13 Inhibitors with Activity in Human Osteosarcoma Cells” (International Journal of Molecular Sciences, 2021).
Converted amounts (≈) assume the structure as drawn.

Legend:
MMP-2 = target: T1, MMP-2 (Homo sapiens, UniProt P08253); assay: MMP inhibition assay (MMP Inhibitor Profiling Kit, thiopeptide substrate), MMP-2; assay type: biochemical; conditions: catalytic domain, 37 °C, pH 7.5
T1 construct: the catalytic domains of the corresponding MMP were incubated in triplicate; purchased Enzo Life Science International, Inc
T1 sequence (P08253 110-446 limits assumed): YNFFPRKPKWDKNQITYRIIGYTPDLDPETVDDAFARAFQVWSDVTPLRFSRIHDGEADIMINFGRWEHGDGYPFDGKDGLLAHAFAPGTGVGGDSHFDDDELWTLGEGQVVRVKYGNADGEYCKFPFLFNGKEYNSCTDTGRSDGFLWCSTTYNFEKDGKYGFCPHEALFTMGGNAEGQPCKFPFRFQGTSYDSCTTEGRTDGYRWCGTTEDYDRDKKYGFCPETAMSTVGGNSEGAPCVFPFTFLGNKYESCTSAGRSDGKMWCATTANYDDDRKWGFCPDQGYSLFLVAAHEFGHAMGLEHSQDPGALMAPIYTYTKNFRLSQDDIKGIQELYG
Protocol: (§1) MMP activity measurements were performed using an MMP Inhibitor Profiling Kit purchased from Enzo Life Science International, Inc. (Farmingdale, NY, USA), and following the manufacturer’s protocol with slight modifications. Proteolytic activity was measured using a thiopeptide substrate (Ac-PLG-[2-mercapto-4-methylpentanoyl]-LG-OC2H5) where the MMP cleavage site peptide bond has been replaced by a thioester bond. Hydrolysis of this bond by MMPs produces a sulfhydryl group that reacts with DTNB to form 2-nitro-5-thiobenzoic acid, which was detected by its absorbance at 414 nm (microplate photometer 90 Thermo Scientific Multiscan FC).
(§2) Enzyme reactions were carried out at 37 °C in a 100 μL final volume of solutions, where the catalytic domains of the corresponding MMP were incubated in triplicate with at least seven concentrations of inhibitors. The assay buffer contained the following components: 50 mM HEPES, 10 mM CaCl2 95, 0.05% Brij-35, and 1 mM DTNB at pH 7.5. After addition of the substrate, the increase of absorbance was recorded in 1 min time intervals for 30 min. Data were plotted as OD versus time for each sample to obtain the reaction velocity (V) in OD per min. The percentage of residual activity for each compound was calculated using the following formula: % of remaining activity = (V in the presence of inhibitor/Vcontrol) × 100. An inhibitor, NNGH, was included as a prototypic control inhibitor. IC50 calculations in MMP-13 and MMP-2 for active compounds are shown in Supplementary Materials (Figure S9)
The concentration of the compound that provided 50% inhibition of enzymatic activity (IC50) was determined by using semi-logarithmic dose–response plots (Graph Pad Prism 5.0 for Windows, Graph Pad Software Inc., San Diego, CA, USA, 2007).

MMP-1 = target: T2, MMP-1 (Homo sapiens, UniProt P03956); assay: MMP inhibition assay (MMP Inhibitor Profiling Kit, thiopeptide substrate), MMP-1; assay type: biochemical; conditions: panel of MMPs
T2 construct: the catalytic domains of the corresponding MMP were incubated in triplicate; purchased Enzo Life Science International, Inc
T2 sequence (P03956 100-269 limits assumed): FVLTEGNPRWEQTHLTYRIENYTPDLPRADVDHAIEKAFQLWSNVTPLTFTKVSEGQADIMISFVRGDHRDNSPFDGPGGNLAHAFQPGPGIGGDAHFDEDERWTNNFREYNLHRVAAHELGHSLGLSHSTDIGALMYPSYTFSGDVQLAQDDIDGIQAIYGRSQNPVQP
Protocol: as §1
as §2, with “An inhibitor, NNGH, was included as a prototypic control inhibitor. IC50 calculations in MMP-13 and MMP-2 for active compounds are shown in Supplementary Materials (Figure S9)” left out

MMP-3 = target: T3, MMP-3 (Homo sapiens, UniProt P08254); assay: MMP inhibition assay (MMP Inhibitor Profiling Kit, thiopeptide substrate), MMP-3; assay type: biochemical; conditions: panel of MMPs
T3 construct: the catalytic domains of the corresponding MMP were incubated in triplicate; purchased Enzo Life Science International, Inc
T3 sequence (P08254 100-272 limits assumed): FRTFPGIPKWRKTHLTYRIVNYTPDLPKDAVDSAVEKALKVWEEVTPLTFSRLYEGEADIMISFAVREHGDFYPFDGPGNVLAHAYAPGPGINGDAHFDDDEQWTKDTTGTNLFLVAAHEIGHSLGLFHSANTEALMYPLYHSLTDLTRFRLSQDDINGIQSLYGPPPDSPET
Protocol: as §1
as §2, with “An inhibitor, NNGH, was included as a prototypic control inhibitor. IC50 calculations in MMP-13 and MMP-2 for active compounds are shown in Supplementary Materials (Figure S9)” left out

MMP-7 = target: T4, MMP-7 (Homo sapiens, UniProt P09237); assay: MMP inhibition assay (MMP Inhibitor Profiling Kit, thiopeptide substrate), MMP-7; assay type: biochemical; conditions: panel of MMPs
T4 construct: the catalytic domains of the corresponding MMP were incubated in triplicate; purchased Enzo Life Science International, Inc
T4 sequence (P09237 95-267): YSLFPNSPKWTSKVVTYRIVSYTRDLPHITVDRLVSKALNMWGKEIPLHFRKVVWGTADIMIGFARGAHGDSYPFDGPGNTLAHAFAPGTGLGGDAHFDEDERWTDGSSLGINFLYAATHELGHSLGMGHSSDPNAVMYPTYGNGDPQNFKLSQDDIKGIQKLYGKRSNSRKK
Protocol: as §1
as §2, with “An inhibitor, NNGH, was included as a prototypic control inhibitor. IC50 calculations in MMP-13 and MMP-2 for active compounds are shown in Supplementary Materials (Figure S9)” left out

MMP-8 = target: T5, MMP-8 (Homo sapiens, UniProt P22894); assay: MMP inhibition assay (MMP Inhibitor Profiling Kit, thiopeptide substrate), MMP-8; assay type: biochemical; conditions: panel of MMPs
T5 construct: the catalytic domains of the corresponding MMP were incubated in triplicate; purchased Enzo Life Science International, Inc
T5 sequence (P22894 100-262 limits assumed): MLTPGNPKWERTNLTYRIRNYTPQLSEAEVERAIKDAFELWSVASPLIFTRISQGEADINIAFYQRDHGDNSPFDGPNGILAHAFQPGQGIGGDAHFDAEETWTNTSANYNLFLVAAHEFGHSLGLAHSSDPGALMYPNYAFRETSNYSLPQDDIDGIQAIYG
Protocol: as §1
as §2, with “An inhibitor, NNGH, was included as a prototypic control inhibitor. IC50 calculations in MMP-13 and MMP-2 for active compounds are shown in Supplementary Materials (Figure S9)” left out

MMP-9 = target: T6, MMP-9 (Homo sapiens, UniProt P14780); assay: MMP inhibition assay (MMP Inhibitor Profiling Kit, thiopeptide substrate), MMP-9; assay type: biochemical; conditions: panel of MMPs
T6 construct: the catalytic domains of the corresponding MMP were incubated in triplicate; purchased Enzo Life Science International, Inc
T6 sequence (P14780 107-444 limits assumed): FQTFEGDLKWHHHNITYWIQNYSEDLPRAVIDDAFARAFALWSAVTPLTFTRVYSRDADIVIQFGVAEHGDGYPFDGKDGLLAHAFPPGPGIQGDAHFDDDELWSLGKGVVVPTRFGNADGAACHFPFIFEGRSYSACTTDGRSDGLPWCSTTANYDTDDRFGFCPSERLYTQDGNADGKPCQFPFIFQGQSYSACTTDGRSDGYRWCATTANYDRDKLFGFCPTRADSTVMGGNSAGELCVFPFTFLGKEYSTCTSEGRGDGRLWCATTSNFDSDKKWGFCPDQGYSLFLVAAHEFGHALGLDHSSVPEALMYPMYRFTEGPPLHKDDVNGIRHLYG
Protocol: as §1
as §2, with “An inhibitor, NNGH, was included as a prototypic control inhibitor. IC50 calculations in MMP-13 and MMP-2 for active compounds are shown in Supplementary Materials (Figure S9)” left out

MMP-10 = target: T7, MMP-10 (Homo sapiens, UniProt P09238); assay: MMP inhibition assay (MMP Inhibitor Profiling Kit, thiopeptide substrate), MMP-10; assay type: biochemical; conditions: panel of MMPs
T7 construct: the catalytic domains of the corresponding MMP were incubated in triplicate; purchased Enzo Life Science International, Inc
T7 sequence (P09238 99-263 limits assumed): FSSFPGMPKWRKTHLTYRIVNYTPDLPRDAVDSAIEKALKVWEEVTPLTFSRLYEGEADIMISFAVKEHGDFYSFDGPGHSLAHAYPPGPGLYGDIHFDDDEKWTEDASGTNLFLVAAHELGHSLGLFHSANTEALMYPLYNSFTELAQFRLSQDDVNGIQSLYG
Protocol: as §1
as §2, with “An inhibitor, NNGH, was included as a prototypic control inhibitor. IC50 calculations in MMP-13 and MMP-2 for active compounds are shown in Supplementary Materials (Figure S9)” left out

MMP-12 = target: T8, MMP-12 (Homo sapiens, UniProt P39900); assay: MMP inhibition assay (MMP Inhibitor Profiling Kit, thiopeptide substrate), MMP-12; assay type: biochemical; conditions: panel of MMPs
T8 construct: the catalytic domains of the corresponding MMP were incubated in triplicate; purchased Enzo Life Science International, Inc
T8 sequence (P39900 106-263 limits assumed): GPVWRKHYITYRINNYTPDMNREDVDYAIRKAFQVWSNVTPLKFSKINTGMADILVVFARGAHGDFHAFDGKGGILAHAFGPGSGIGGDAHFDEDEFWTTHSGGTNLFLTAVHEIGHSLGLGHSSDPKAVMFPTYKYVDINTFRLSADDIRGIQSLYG
Protocol: as §1
as §2, with “An inhibitor, NNGH, was included as a prototypic control inhibitor. IC50 calculations in MMP-13 and MMP-2 for active compounds are shown in Supplementary Materials (Figure S9)” left out

MMP-14 = target: T9, MMP-14 (Homo sapiens, UniProt P50281); assay: MMP inhibition assay (MMP Inhibitor Profiling Kit, thiopeptide substrate), MMP-14; assay type: biochemical; conditions: panel of MMPs
T9 construct: the catalytic domains of the corresponding MMP were incubated in triplicate; purchased Enzo Life Science International, Inc
Protocol: as §1
as §2, with “An inhibitor, NNGH, was included as a prototypic control inhibitor. IC50 calculations in MMP-13 and MMP-2 for active compounds are shown in Supplementary Materials (Figure S9)” left out

[1] = Thermodynamic solubility (shake flask method); assay type: physicochemical; conditions: phosphate buffer, aqueous buffer, thermodynamic from solid; PBS pH 7.4, shake flask, room temperature; read-out: Experimental Water Solubility LogS (converted)
Protocol: The samples were sonicated for 10 min and shaken overnight at 800 rpm (FB15013 TopMix, Fischer Scientific, Waltham, MA, USA) at room temperature. A first phase separation of supernatant and undissolved solid was performed by centrifugation at 5000 rpm for 20 min (Biofuge primo R). The supernatant was then transferred into Eppendorf tubes for a second centrifugation. An adequate dilution was made using the particle-free supernatant and the concentration quantified by LC-HRMS using a 4-point calibration curve (Agilent 1260 Infinity II).
PART A. Calibration curves of compounds for solubility
9e, 10a-e), 4-points calibration curves were made for each compound. Calibrations curves were obtained using four different concentrations of the corresponding compound (0.1 mg/mL, 0.01 mg/mL, 0.001 mg/mL and 0.0001 mg/mL). All samples were prepared in DMSO and measured in a LC-HRMS (Agilent 1260 Infinity II).
Figure S1. Calibration curves of all active compounds (solubility studies) (1, 2, 9a, 9e, 10a-e) […]

MMP-13 = target: T10, MMP-13 (Homo sapiens, UniProt P45452); assay: MMP inhibition assay (MMP Inhibitor Profiling Kit, thiopeptide substrate), MMP-13; assay type: biochemical; conditions: catalytic domain, 37 °C, pH 7.5
T10 construct: the catalytic domains of the corresponding MMP were incubated in triplicate; purchased Enzo Life Science International, Inc
Protocol: as §1, with “Proteolytic activity was measured using a thiopeptide substrate (Ac-PLG-[2-mercapto-4-methylpentanoyl]-LG-OC2H5) where the MMP cleavage site peptide bond has been replaced by a thioester bond.” left out
The assay buffer contained the following components: 50 mM HEPES, 10 mM CaCl2 95, 0.05% Brij-35, and 1 mM DTNB at pH 7.5. After addition of the substrate, the increase of absorbance was recorded in 1 min time intervals for 30 min. Data were plotted as OD versus time for each sample to obtain the reaction velocity (V) in OD per min. The percentage of residual activity for each compound was calculated using the following formula: % of remaining activity = (V in the presence of inhibitor/Vcontrol) × 100. An inhibitor, NNGH, was included as a prototypic control inhibitor.

[2] = target: T11, recombinantly expressed catalytic domain of MMP-13 (Homo sapiens, UniProt P45452); assay: Enzymatic activity of recombinantly expressed MMP-13 catalytic domain, dose response of BiPS; assay type: biochemical; conditions: recombinantly expressed catalytic domain of MMP-13, after refolding
T11 construct: containing the catalytic site (amino acid residues −104 to 274); TEV cleavage site (C); 6xHis (C); made in house; host or cells: Escherichia coli BL21-DE3 pLys S
Excerpt: To this end, a recombinantly expressed catalytic domain of MMP-13 was purified under denaturing conditions (Figure S6); the process lead to a very pure sample preparation.
(§3) Figure S5. PyMOL stick and cartoon representation of the bidentate interaction established by the hydroxamate and the catalytic Zinc ion in both MMP-13 (left) and MMP-2 (right). Hydrogen bonds are shown in dashed lines, the catalytic zinc ion is shown as grey sphere. For the sake of clarity, no hydrogens are shown.
(§4) Figure S6. SDS-PAGE analysis of the recombinantly expressed catalytic dom ain of MMP-13 purified by metal affinity chromatography. M corresponds to the molecular weight markers ( k D a ) . […]
(§5) Log(BiPS [M]) Log(BiPS [M])
(§6) Figure S7. Dose response curve used to determine IC50 of BiPS for A) recombinantly expressed catalytic domain of MMP-13, and B) commercially available MMP-13 active protein. […]

[3] = target: commercially available MMP-13 active protein (Homo sapiens, UniProt P45452); assay: Enzymatic activity of commercial MMP-13, dose response of BiPS; assay type: biochemical
Excerpt: as §3, §4, §5, §6

MMP-13 catalytic domain = MMP-13 catalytic domain (Homo sapiens, UniProt P45452); assay: WaterLOGSY NMR experiment; conditions: 5 μM protein, 0.15 mM ligand, 25 °C

| SMILES | IC50 (MMP-2) [nM] | solubility [1] [µM] | melting point | IC50 (MMP-13) [nM] | other results |
| --- | --- | --- | --- | --- | --- |
| O=C(NO)[C@@H](Cc1ccccc1)NS(=O)(=O)c1ccc(-n2cc(CCn3nc4ccccc4n3)nn2)cc1 [Compound 9a] | 3.42 ± 1.15 | 9.77 (≈ 5.2 µg/mL) | – | – | IC50 (MMP-1): > 1000 nM; IC50 (MMP-3): 31 ± 8 nM; IC50 (MMP-7): 47 ± 21 nM; IC50 (MMP-8): 100 ± 19 nM; IC50 (MMP-9): 500 ± 74 nM; IC50 (MMP-10): 280 ± 22 nM; IC50 (MMP-12): 3.7 ± 2 nM; IC50 (MMP-14): > 1000 nM |
| O=C(NO)C1(S(=O)(=O)c2ccc(-n3cc(CCn4nc5ccccc5n4)nn3)cc2)CCOCC1 [Compound 9e, 4-((4-(4-(2-(2H-benzo[d][1–3]triazol-2-yl)ethyl)-1H-1,2,3-triazol-1-yl)phenyl)sulfonyl)-N-hydroxytetrahydro-2H-pyran-4-carboxamide] | 10.3 ± 2.8 | 33.9 (≈ 16.9 µg/mL) | – | – | – |
| O=C(NO)[C@@H](Cc1ccccc1)NS(=O)(=O)c1ccc(-n2cc(CCN3C(=O)c4ccc(Br)cc4C3=O)nn2)cc1 [Compound 10d, (R)-2-((4-(4-(2-(5-bromo-1,3-dioxoisoindolin-2-yl)ethyl)-1H-1,2,3-triazol-1-yl)phenyl)sulfonamido)-N-hydroxy-3-phenylpropanamide] | 14 ± 7 | 2.29 (≈ 1.46 µg/mL) | 104 °C (dec.) | – | – |
| O=C(NO)[C@@H](Cc1ccccc1)NS(=O)(=O)c1ccc(-n2cc(CCN3C(=O)c4c(Br)c(Br)c(Br)c(Br)c4C3=O)nn2)cc1 [Compound 10c, (R)-N-hydroxy-3-phenyl-2-((4-(4-(2-(4,5,6,7-tetrabromo-1,3-dioxoisoindolin-2-yl)ethyl)-1H-1,2,3-triazol-1-yl)phenyl)sulfonamido)propenamide] | 17 ± 4 | 0.141 (≈ 0.124 µg/mL) | 195 to 197 °C | 61 ± 18 | – |
| O=C(NO)[C@@H](Cc1ccccc1)NS(=O)(=O)c1ccc(-c2ccccc2)cc1 [BiPS, (2R)-[(4-biphenylylsulfonyl)amino]-N-hydroxy-3-phenylpropionamide] | – | – | – | – | IC50 [2]: 1.44 nM; IC50 [3]: 2.06 nM; Interaction with the MMP-13 catalytic domain (WaterLOGSY) (MMP-13 catalytic domain): positive signals |
| O=C(O)[C@@H](Cc1ccccc1)NS(=O)(=O)c1ccc(-n2cc(CCn3nc4c(Br)c(Br)c(Br)c(Br)c4n3)nn2)cc1 [Compound 9d, (R)-2-(4-(4-(2-(perbromo-2H-benzo[d][1–3]triazol-2-yl)ethyl)-1H-1,2,3-triazol-1-yl)phenylsulfonamido)-3-phenylpropanoic acid] | > 100 | – | 127 to 130 °C | > 100 | – |
